Active and inactive are the calls of the source. No cut-off for these calls is given here.

Test [1] has as its target T1, Protein cereblon/Signal transducer and activator of transcription 6 (Homo sapiens, UniProt P42226+Q96SW2). The experiment in a line: PROTAC activity at STAT6/CRBN in human MV4-11 cells assessed as reduction in STAT6 level at upto 10 uM incubated for 12 hrs by Western blot analysis. Format: cell-based. A general note: A western blot detects proteins with antibodies after separation by electrophoresis.

In test [2] the target is Protein cereblon/Signal transducer and activator of transcription 1-alpha/beta (Homo sapiens) (UniProt P42224+Q96SW2). Kind of test: PROTAC activity at STAT1/CRBN in human PBMC cells assessed as reduction in STAT1 level at 10 uM incubated for 18 hrs by Western blot analysis relative to control. In kind it is cell-based.
Test [3] has as its target Protein cereblon/Signal transducer and activator of transcription 2 (Homo sapiens) (UniProt Q96SW2+P52630). Kind of test: PROTAC activity at STAT2/CRBN in human PBMC cells assessed as reduction in STAT2 level at 10 uM incubated for 18 hrs by Western blot analysis relative to control. In kind it is cell-based.
The target of test [4] is T1, Protein cereblon/Signal transducer and activator of transcription 6. The experiment in a line: PROTAC activity at STAT6 at Y641 residue/CRBN in human L-1236 cells assessed as reduction in STAT6 level at 10 uM incubated for 24 hrs by Western blot analysis. In kind it is cell-based.
For test [5], the target named is Protein cereblon/Signal transducer and activator of transcription 5A/Signal transducer and activator of transcription 5B (Homo sapiens) (UniProt P42229+P51692+Q96SW2). Kind of test: PROTAC activity at STAT5/CRBN in human PBMC cells assessed as reduction in STAT5 level at 10 uM incubated for 18 hrs by Western blot analysis relative to control. In kind it is cell-based.

Test [6] deals with Protein cereblon/Signal transducer and activator of transcription 3 (Homo sapiens) (UniProt P40763+Q96SW2). Kind of test: PROTAC activity at STAT3/CRBN in human PBMC cells assessed as reduction in STAT3 level at 10 uM incubated for 18 hrs by Western blot analysis relative to control. In kind it is cell-based.
The target in test [7] is T1, Protein cereblon/Signal transducer and activator of transcription 6. The experiment in a line: PROTAC activity at STAT6/CRBN in human L-1236 cells assessed as reduction in STAT6 level at 10 uM incubated for 24 hrs by Western blot analysis. In kind it is cell-based.
In test [8] the target is Protein cereblon/Signal transducer and activator of transcription 4 (Homo sapiens) (UniProt Q96SW2+Q14765). The experiment in a line: PROTAC activity at STAT4/CRBN in human PBMC cells assessed as reduction in STAT4 level at 10 uM incubated for 18 hrs by Western blot analysis relative to control. In kind it is cell-based.
For test [9], the target named is T2, Signal transducer and activator of transcription 5A (Homo sapiens, UniProt P42229).
T2 sequence (P42229 whole entry): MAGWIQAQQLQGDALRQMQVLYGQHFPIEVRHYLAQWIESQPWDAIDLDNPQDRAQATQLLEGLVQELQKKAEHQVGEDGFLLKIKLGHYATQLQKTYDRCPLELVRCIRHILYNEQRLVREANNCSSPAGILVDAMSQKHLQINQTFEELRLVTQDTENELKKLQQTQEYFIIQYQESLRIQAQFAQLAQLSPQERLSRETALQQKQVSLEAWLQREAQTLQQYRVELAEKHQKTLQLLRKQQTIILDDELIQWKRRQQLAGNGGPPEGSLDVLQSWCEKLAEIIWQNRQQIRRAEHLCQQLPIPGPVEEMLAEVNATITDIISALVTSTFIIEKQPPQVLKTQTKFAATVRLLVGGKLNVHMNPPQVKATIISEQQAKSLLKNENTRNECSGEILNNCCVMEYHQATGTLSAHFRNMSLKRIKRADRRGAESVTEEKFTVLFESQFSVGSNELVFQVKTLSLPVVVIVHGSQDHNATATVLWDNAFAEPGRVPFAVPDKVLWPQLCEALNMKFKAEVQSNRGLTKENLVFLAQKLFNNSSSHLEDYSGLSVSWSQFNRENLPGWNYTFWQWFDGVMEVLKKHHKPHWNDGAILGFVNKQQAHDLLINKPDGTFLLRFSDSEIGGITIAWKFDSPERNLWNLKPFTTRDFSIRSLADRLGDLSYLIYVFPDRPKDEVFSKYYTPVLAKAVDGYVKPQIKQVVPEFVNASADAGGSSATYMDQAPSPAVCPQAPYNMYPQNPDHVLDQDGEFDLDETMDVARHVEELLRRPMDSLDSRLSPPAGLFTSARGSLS
The experiment in a line: Binding affinity to STAT5A (unknown origin) assessed as inhibition constant incubated for 1 hr by fluorescence polarization assay. On the technique in general: In fluorescence polarisation assays a small probe gives low polarisation when free and higher when bound to something large.

The target of test [10] is T3, Signal transducer and activator of transcription 6 (Homo sapiens, UniProt P42226).
T3 sequence (P42226 whole entry): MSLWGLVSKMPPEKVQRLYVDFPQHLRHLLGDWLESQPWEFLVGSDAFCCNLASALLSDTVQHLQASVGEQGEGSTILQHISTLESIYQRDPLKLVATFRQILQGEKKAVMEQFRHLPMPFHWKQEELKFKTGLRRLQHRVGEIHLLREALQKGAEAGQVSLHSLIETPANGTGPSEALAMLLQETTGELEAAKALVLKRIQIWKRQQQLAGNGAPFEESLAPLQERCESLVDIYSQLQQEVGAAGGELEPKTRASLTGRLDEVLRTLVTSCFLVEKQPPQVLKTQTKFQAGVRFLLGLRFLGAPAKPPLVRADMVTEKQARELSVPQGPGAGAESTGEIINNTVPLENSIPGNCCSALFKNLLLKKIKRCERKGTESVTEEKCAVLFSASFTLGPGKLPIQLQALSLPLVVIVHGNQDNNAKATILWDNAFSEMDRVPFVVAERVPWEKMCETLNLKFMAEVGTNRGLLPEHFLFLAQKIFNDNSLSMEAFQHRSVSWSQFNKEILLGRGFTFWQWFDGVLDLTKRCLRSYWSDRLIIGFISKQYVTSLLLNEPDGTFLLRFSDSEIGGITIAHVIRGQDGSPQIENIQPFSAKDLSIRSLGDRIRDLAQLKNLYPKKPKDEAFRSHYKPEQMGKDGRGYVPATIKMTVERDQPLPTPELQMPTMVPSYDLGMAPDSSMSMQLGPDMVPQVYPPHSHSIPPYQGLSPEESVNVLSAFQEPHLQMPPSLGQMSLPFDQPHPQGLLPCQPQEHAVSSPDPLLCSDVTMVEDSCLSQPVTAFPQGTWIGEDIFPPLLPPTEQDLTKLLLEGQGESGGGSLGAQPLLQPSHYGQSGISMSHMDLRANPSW
Kind of test: Binding affinity to N-terminal his6-tgged STAT6 (unknown origin) (113 to 658 residues) assessed as inhibition constant incubated for 1 hr by fluorescence polarization assay.

Test [11] addresses T4, Signal transducer and activator of transcription 5B (Homo sapiens, UniProt P51692).
T4 sequence (P51692 whole entry): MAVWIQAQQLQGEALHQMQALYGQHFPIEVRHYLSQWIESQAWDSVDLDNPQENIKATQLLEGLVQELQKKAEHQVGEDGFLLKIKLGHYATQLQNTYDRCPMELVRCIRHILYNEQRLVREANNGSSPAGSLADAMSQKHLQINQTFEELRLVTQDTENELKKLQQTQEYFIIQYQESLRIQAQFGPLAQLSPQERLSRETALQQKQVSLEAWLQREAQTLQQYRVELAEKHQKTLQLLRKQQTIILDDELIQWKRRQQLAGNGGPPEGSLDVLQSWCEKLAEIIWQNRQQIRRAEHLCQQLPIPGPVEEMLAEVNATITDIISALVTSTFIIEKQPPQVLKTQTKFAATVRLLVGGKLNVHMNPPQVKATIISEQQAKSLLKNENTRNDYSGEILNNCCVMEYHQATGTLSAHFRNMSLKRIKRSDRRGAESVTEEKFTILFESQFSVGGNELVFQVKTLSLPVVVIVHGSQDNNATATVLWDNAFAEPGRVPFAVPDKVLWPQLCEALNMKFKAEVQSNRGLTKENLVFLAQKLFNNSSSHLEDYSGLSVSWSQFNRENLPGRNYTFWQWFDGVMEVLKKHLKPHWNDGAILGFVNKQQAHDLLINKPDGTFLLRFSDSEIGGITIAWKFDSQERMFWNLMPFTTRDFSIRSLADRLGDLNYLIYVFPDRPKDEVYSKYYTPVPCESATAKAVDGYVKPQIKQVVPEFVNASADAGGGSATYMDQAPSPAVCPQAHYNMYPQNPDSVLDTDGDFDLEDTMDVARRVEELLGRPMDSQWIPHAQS
The experiment in a line: Binding affinity to STAT5B (unknown origin) assessed as inhibition constant incubated for 1 hr by fluorescence polarization assay.

The target of test [12] is T1, Protein cereblon/Signal transducer and activator of transcription 6. The experiment in a line: PROTAC activity at STAT6/CRBN in human MV4-11 cells assessed as reduction in STAT6 level at 0.5 uM measured upto 1200 mins by HiBiT bioluminescence assay. Format: cell-based. A general note: HiBiT is a short tag that completes a luciferase, so light tracks the accessible tagged protein.

The target is the same in test [13]. Kind of test: PROTAC activity at STAT6/CRBN in human MV4-11 cells assessed as reduction in STAT6 level at 5 uM incubated for 12 hrs by Western blot analysis relative to control. In kind it is cell-based.
Test [14] shares this target. Kind of test: PROTAC activity at STAT6/CRBN in human MV4-11 cells assessed as reduction in STAT6 level incubated for 12 hrs by Western blot analysis. Format: cell-based.

For the molecule `CN1C(=O)CCC(N2Cc3c(C#CCCCCCO[C@H]4C[C@@H](C(=O)N5CCO[C@H](c6ccccc6)C5)N(C(=O)[C@@H](NC(=O)c5cc6cc(C(F)(F)P(=O)(O)O)ccc6s5)C(C)(C)C)C4)cccc3C2=O)C1=O` (stereo partly drawn), in test [1], the result was inactive. The Activity entry in test [2], in test [3], in test [4], in test [5], in [6] and in test [7] was “No effect” throughout. The Activity entry in test [8] is “No effect”.
As a reminder, the Ki is a dissociation constant, usually derived from enzyme kinetics or from competition with a known ligand. For the molecule `CC(C)(C)[C@H](NC(=O)c1cc2cc(C(F)(F)P(=O)(O)O)ccc2s1)C(=O)N1CCC[C@H]1C(=O)N1CCOC(Cc2ccccc2)C1` (stereo partly drawn), the inhibition constant (Ki) is above 5000 nM in [9], 1300 nM in [10] and above 5000 nM in test [11].
On to `CC(C)(C)[C@H](NC(=O)c1cc2cc(C(F)(F)P(=O)(O)O)ccc2s1)C(=O)N1CCC[C@H]1C(=O)N1CCOC(c2ccc(F)cc2F)C1` (stereo partly drawn), for which the Ki is above 5000 nM in test [9], 420 nM in test [10] and above 5000 nM in [11].
For the molecule `CC(C)(C)[C@H](NC(=O)c1cc2cc(C(F)(F)P(=O)(O)O)ccc2s1)C(=O)N1CCC[C@H]1C(=O)N1CCOC(C2CCCCC2)C1` (stereo partly drawn), the Ki in test [9] was found to be 1800 nM; in test [10], 500 nM; in test [11], 200 nM.
For the molecule `CC(C)(C)[C@H](NC(=O)c1cc2cc(C(F)(F)P(=O)(O)O)ccc2s1)C(=O)N1CCC[C@H]1C(=O)N1CCSC(c2ccccc2)C1` (stereo partly drawn), the Ki in test [9] is 1400 nM; in [10] it was 80 nM; in test [11] it was 1800 nM.
For `CC(C)(C)[C@H](NC(=O)c1cc2cc(C(F)(F)P(=O)(O)O)ccc2s1)C(=O)N1CCC[C@H]1C(=O)N1CCOC(c2ccccc2F)C1` (stereo partly drawn), the values for the Ki in [9], in test [10] and in [11] were above 5000 nM, 110 nM and 2400 nM, respectively.
In the case of `NS(=O)(=O)OC[C@@H]1C[C@@H](n2ccc3c(N[C@H]4CCc5ccccc54)ncnc32)C[C@@H]1O`, the Activity entry in [12] was “No effect”.
As to `CC(C)(C)[C@H](NC(=O)c1cc2cc(C(F)(F)P(=O)(O)O)ccc2s1)C(=O)N1CCC[C@H]1C(=O)N1CCOC(c2cccnc2)C1` (stereo partly drawn), the figures for the Ki in test [9], in [10] and in test [11] were above 5000 nM, 310 nM and above 5000 nM, respectively.
For `CC(C)(C)[C@H](NC(=O)c1cc2cc(C(F)(F)P(=O)(O)O)ccc2s1)C(=O)N1CCC[C@H]1C(=O)N1CCOC(c2ccc3ccccc3c2)C1` (stereo partly drawn), the figures for the inhibition constant Ki in test [9], in [10] and in [11] were 1400 nM, 83 nM and 800 nM, respectively.
The like results for `CC(C)(C)[C@H](NC(=O)c1cc2cc(C(F)(F)P(=O)(O)O)ccc2s1)C(=O)N1CCC[C@H]1C(=O)N1CCOC(c2ccc(F)cc2)C1` (stereo partly drawn) were, in that order, above 5000 nM, 220 nM and 4400 nM.
The like results for `CC(C)(C)[C@H](NC(=O)c1cc2cc(C(F)(F)P(=O)(O)O)ccc2s1)C(=O)N1CCC[C@H]1C(=O)N1CCOC(c2ccncc2)C1` (stereo partly drawn) were, in that order, above 5000 nM, 1100 nM and above 5000 nM.
In general, Emax refers to the greatest response seen or fitted, relative to the assay's reference. In the case of `CC(C)(C)[C@H](NC(=O)c1cc2cc(C(F)(F)P(=O)(O)O)ccc2s1)C(=O)N1C[C@H](OCCCCCC#Cc2cccc3c2CN(C2CCC(=O)NC2=O)C3=O)C[C@H]1C(=O)N1CCO[C@H](c2ccccc2)C1` (stereo partly drawn), the Emax in test [13] was above 95%. The DC50 in test [14] is 130 nM.

(Values after ChEMBL document CHEMBL6103537 (J Med Chem, 2025).)
